{"source": "patent US11452718B2", "about": "(AVALYN PHARMA INC., priority 2012, dated 2022)", "molecules": {"B1": {"name": "reduced rhTrx: stable reduced form of recombinant human thioredoxin (protein, UniProt P10599 2-105, looked up)", "Thioredoxin": "VKQIESKTAFQEALDAAGDKLVVVDFSATWCGPCKMIKPFFHSLSEKYSNVIFLEVDVDDCQDVASECEVKCMPTFQFFKKGQKVGEFSGANKEKLEATINELV", "modifications": "reduced form"}}, "key": {"[1]": {"conditions": "in vivo; cited from earlier work"}, "[2]": {"assay": "Pharmacokinetics and tissue distribution (lung, plasma, heart, kidney) of co-solvent formulations, bolus intratracheal aerosol", "type": "in vivo, Sprague-Dawley rats", "conditions": "for Analyte in lung tissue, Mean: about 4 mg/kg pirfenidone IT bolus aerosol", "experimental": "Selected formulations were prepared for pharmacokinetic analysis following aerosol delivery to rat lung. […] Formulations prepared for this study are outlined in Table 9. […] The sample was agitated until completely dissolved. […] Filtered samples were analyzed by HPLC."}, "[3]": {"test_system": "sol elastase activity of CF sputum", "conditions": "direct treatment of unprocessed CF sputum; cited from earlier work"}, "breast cancer stem cells": {"test_system": "breast cancer stem cells", "conditions": "mouse, in vivo; cited from earlier work"}, "p110-γ and p110-δ": {"test_system": "p110-γ and p110-δ", "conditions": "versus the other isoforms; cited from earlier work"}, "mTOR": {"molecular_target": "mTOR (Homo sapiens, UniProt P42345)", "conditions": "cited from earlier work"}, "[4]": {"test_system": "relapsed/refractory multiple myeloma", "conditions": "cited from earlier work"}, "cancer patients": {"test_system": "cancer patients", "conditions": "cited from earlier work"}, "PI3K": {"test_system": "PI3K", "conditions": "cited from earlier work"}, "[5]": {"test_system": "EGFR mutation positive patients", "conditions": "cited from earlier work"}}, "data": [{"molecule": "O=C(O)c1ccc(=O)n(-c2ccccc2)c1", "note": "[5-carboxy-pirfenidone]", "values": [{"measurement": "share of urinary excretion being the primary metabolite", "setting": "[1]", "result": 95, "unit": "%"}, {"measurement": "appearance of metabolite after direct aerosol administration to the lung", "setting": "[2]; primary pirfenidone liver metabolite", "result": "delayed appearance"}]}, {"molecule": "DNase", "values": [{"measurement": "increase of elastase activity", "setting": "[3]", "result": 190, "unit": "%"}]}, {"molecule": "CC[C@@H](C(=O)[C@@H](C)[C@@H](O)[C@H](C)[C@@H]1O[C@@H]([C@@H](CC)C(=O)O)CC[C@@H]1C)[C@H]1O[C@]2(C=C[C@@H](O)[C@]3(CC[C@@](C)([C@H]4CC[C@](O)(CC)[C@H](C)O4)O3)O2)[C@H](C)C[C@@H]1C", "note": "[Salinomycin]", "values": [{"measurement": "effectiveness relative to paclitaxel", "setting": "breast cancer stem cells", "result": "at least 100 times"}]}, {"molecule": "Nc1nc(N)c2nc(-c3cccc(O)c3)c(-c3cccc(O)c3)nc2n1", "note": "[TG100-115]", "values": [{"measurement": "better potency against p110-γ and p110-δ", "setting": "p110-γ and p110-δ", "result": "5-10 fold"}]}, {"molecule": "O=C(O)c1ccc(=O)n(-c2ccccc2)c1", "values": [{"measurement": "Analyte in lung tissue, Mean", "setting": "[2]; 0 MIN", "result": 0.00, "unit": "μg/gram"}, {"measurement": "Analyte in lung tissue, Mean", "setting": "[2]; Group 1, 0.0333 hr", "result": 0.12, "unit": "μg/gram"}, {"measurement": "Analyte in lung tissue, Mean", "setting": "[2]; Group 1, 0.0667 hr", "result": 0.13, "unit": "μg/gram"}, {"measurement": "Analyte in lung tissue, Mean", "setting": "[2]; Group 1, 0.1 hr", "result": 0.48, "unit": "μg/gram"}, {"measurement": "Analyte in lung tissue, Mean", "setting": "[2]; Group 1, 0.167 hr", "result": 0.49, "unit": "μg/gram"}, {"measurement": "Analyte in lung tissue, Mean", "setting": "[2]; Group 1, 0.333 hr", "result": 0.96, "unit": "μg/gram"}, {"measurement": "Analyte in lung tissue, Mean", "setting": "[2]; Group 1, 0.667 hr", "result": 0.96, "unit": "μg/gram"}, {"measurement": "Analyte in lung tissue, Mean", "setting": "[2]; Group 1, 1 hr", "result": 0.73, "unit": "μg/gram"}, {"measurement": "Analyte in lung tissue, Mean", "setting": "[2]; Group 1, 2 hr", "result": 0.21, "unit": "μg/gram"}, {"measurement": "Analyte in lung tissue, Mean", "setting": "[2]; Group 1, 2.5 hr", "result": 0.10, "unit": "μg/gram"}, {"measurement": "Analyte in lung tissue, Mean", "setting": "[2]; Group 1, […]", "result": 0.48, "unit": "μg/gram"}, {"measurement": "Analyte in lung tissue, Mean", "setting": "[2]; Group 3, 0.0333 hr", "result": 0.05, "unit": "μg/gram"}, {"measurement": "Analyte in lung tissue, Mean", "setting": "[2]; Group 3, 0.0667 hr", "result": 0.36, "unit": "μg/gram"}, {"measurement": "Analyte in lung tissue, Mean", "setting": "[2]; Group 3, 0.1 hr", "result": 0.55, "unit": "μg/gram"}, {"measurement": "Analyte in lung tissue, Mean", "setting": "[2]; Group 3, 0.167 hr", "result": 0.86, "unit": "μg/gram"}, {"measurement": "Analyte in lung tissue, Mean", "setting": "[2]; Group 3, 0.333 hr", "result": 1.09, "unit": "μg/gram"}, {"measurement": "Analyte in lung tissue, Mean", "setting": "[2]; Group 3, 0.667 hr", "result": 0.81, "unit": "μg/gram"}, {"measurement": "Analyte in lung tissue, Mean", "setting": "[2]; Group 3, 1 hr", "result": 0.70, "unit": "μg/gram"}, {"measurement": "Analyte in lung tissue, Mean", "setting": "[2]; Group 3, 2 hr", "result": 0.32, "unit": "μg/gram"}, {"measurement": "Analyte in lung tissue, Mean", "setting": "[2]; Group 3, 2.5 hr", "result": 0.14, "unit": "μg/gram"}, {"measurement": "Analyte in lung tissue, Mean", "setting": "[2]; Group 3, […]", "result": 0.52, "unit": "μg/gram"}, {"measurement": "Analyte in lung tissue, Mean", "setting": "[2]; Group 5, 0.0333 hr", "result": 0.17, "unit": "μg/gram"}, {"measurement": "Analyte in lung tissue, Mean", "setting": "[2]; Group 5, 0.0667 hr", "result": 0.42, "unit": "μg/gram"}, {"measurement": "Analyte in lung tissue, Mean", "setting": "[2]; Group 5, 0.1 hr", "result": 0.35, "unit": "μg/gram"}, {"measurement": "Analyte in lung tissue, Mean", "setting": "[2]; Group 5, 0.167 hr", "result": 0.53, "unit": "μg/gram"}, {"measurement": "Analyte in lung tissue, Mean", "setting": "[2]; Group 5, 0.333 hr", "result": 1.32, "unit": "μg/gram"}, {"measurement": "Analyte in lung tissue, Mean", "setting": "[2]; Group 5, 0.667 hr", "result": 0.96, "unit": "μg/gram"}, {"measurement": "Analyte in lung tissue, Mean", "setting": "[2]; Group 5, 1 hr", "result": 0.75, "unit": "μg/gram"}, {"measurement": "Analyte in lung tissue, Mean", "setting": "[2]; Group 5, 2 hr", "result": 0.18, "unit": "μg/gram"}, {"measurement": "Analyte in lung tissue, Mean", "setting": "[2]; Group 5, 2.5 hr", "result": 0.10, "unit": "μg/gram"}, {"measurement": "Analyte in lung tissue, Mean", "setting": "[2]; Group 5, […]", "result": 0.45, "unit": "μg/gram"}, {"measurement": "Analyte in lung tissue, Mean", "setting": "[2]; Group 6, 0.0333 hr", "result": 0.17, "unit": "μg/gram"}, {"measurement": "Analyte in lung tissue, Mean", "setting": "[2]; Group 6, 0.0667 hr", "result": 0.43, "unit": "μg/gram"}, {"measurement": "Analyte in lung tissue, Mean", "setting": "[2]; Group 6, 0.1 hr", "result": 0.37, "unit": "μg/gram"}, {"measurement": "Analyte in lung tissue, Mean", "setting": "[2]; Group 6, 0.167 hr", "result": 0.64, "unit": "μg/gram"}, {"measurement": "Analyte in lung tissue, Mean", "setting": "[2]; Group 6, 0.333 hr", "result": 0.94, "unit": "μg/gram"}, {"measurement": "Analyte in lung tissue, Mean", "setting": "[2]; Group 6, 0.667 hr", "result": 0.92, "unit": "μg/gram"}, {"measurement": "Analyte in lung tissue, Mean", "setting": "[2]; Group 6, 1 hr", "result": 0.78, "unit": "μg/gram"}, {"measurement": "Analyte in lung tissue, Mean", "setting": "[2]; Group 6, 2 hr", "result": 0.24, "unit": "μg/gram"}, {"measurement": "Analyte in lung tissue, Mean", "setting": "[2]; Group 6, 2.5 hr", "result": 0.14, "unit": "μg/gram"}, {"measurement": "Analyte in lung tissue, Mean", "setting": "[2]; Group 6, […]", "result": 0.43, "unit": "μg/gram"}]}, {"molecule": "Cc1c(CN2CCN(S(C)(=O)=O)CC2)sc2c(N3CCOCC3)nc(-c3cnc(N)nc3)nc12", "note": "[GNE-477]", "values": [{"measurement": "IC50", "setting": "mTOR", "result": 21, "unit": "nM"}]}, {"molecule": "CC(C)C[C@H](NC(=O)[C@H](Cc1ccccc1)NC(=O)c1cnccn1)B(O)O", "note": "[Bortezomib]", "values": [{"measurement": "patients with peripheral neuropathy", "setting": "[4]; human, in vivo", "result": 30, "unit": "%"}, {"measurement": "time to peak concentrations", "setting": "[4]; intravenous administration", "result": "about 30 minutes"}]}, {"molecule": "N#CC1(c2ccc(NC(=O)c3cccnc3NCc3ccncc3)cc2)CCCC1", "note": "[Apatinib]", "values": [{"measurement": "dose limiting toxicities", "setting": "cancer patients; 1000 mg/day", "result": "3 of 3"}, {"measurement": "complete response", "setting": "cancer patients; 65 cancer patients, Phase I/II", "result": 1.54, "unit": "%"}, {"measurement": "partial response", "setting": "cancer patients; 65 cancer patients, Phase I/II", "result": 12.31, "unit": "%"}, {"measurement": "progressive disease", "setting": "cancer patients; 65 cancer patients, Phase I/II", "result": 20, "unit": "%"}, {"measurement": "stable disease", "setting": "cancer patients; 65 cancer patients, Phase I/II", "result": 66.15, "unit": "%"}, {"measurement": "well tolerated dose", "setting": "cancer patients; daily for 28 days", "result": "below 750 mg/day"}, {"measurement": "maximum tolerated dose", "setting": "cancer patients; human, in vivo", "result": 850, "unit": "mg/day"}]}, {"molecule": "CS(=O)(=O)N1CCN(Cc2cc3nc(-c4cccc5[nH]ncc45)nc(N4CCOCC4)c3s2)CC1", "note": "[GDC-0941]", "values": [{"measurement": "IC50", "setting": "PI3K", "result": "[…]"}]}, {"molecule": "C#Cc1cccc(Nc2ncnc3cc(OCCOC)c(OCCOC)cc23)c1", "note": "[erlotinib]", "values": [{"measurement": "response rate", "setting": "[5]; EGFR mutation positive patients", "result": "approximately 60%"}, {"measurement": "time to development of resistance from the start of treatment", "setting": "[5]; human, in vivo", "result": "8-12 months"}]}, {"molecule": "B1", "values": [{"measurement": "increase of elastase activity", "setting": "[3]", "result": 60, "unit": "%"}]}]}
